The values below come from publication PMC7838199, “Color-tunable bioluminescence imaging portfolio for cell imaging” (Scientific Reports, 2021).

For assay [1], the system named is T1, Artificial Luciferase 16 (ALuc16).
T1 construct: designed artificial luciferase; recombinant for the kinetics; cDNA in pcDNA3.1(+) for cell work
Kind of assay: bioluminescence, Lineweaver-Burk. As to conditions: 50 mM HEPES, pH 7.2; 0.1 µM luciferase. The class given is biochemical, synthetic construct. From the text: bioluminescence, Lineweaver-Burk on Artificial Luciferase 16 (ALuc16)

A further assay deals with T2, NanoLuc (Oplophorus gracilirostris, UniProt Q9GV45, A31E/Q38R/Q45L/L54V/A60N/K70R/V71I/A81I/F95D/L99Q/M102K/I117V/P142E/Q151K/Y165I/N193R).
T2 construct: pcDNA3.1(+) in MDA-MB-231 cells, lysate
Kind of assay: bioluminescence spectrum in transfected-cell lysate. As to conditions: 50 mM HEPES, pH 7.2; MDA-MB-231 lysate. The class given is cell-based.

T2 sequence (Q9GV45 28-196 with the stated changes): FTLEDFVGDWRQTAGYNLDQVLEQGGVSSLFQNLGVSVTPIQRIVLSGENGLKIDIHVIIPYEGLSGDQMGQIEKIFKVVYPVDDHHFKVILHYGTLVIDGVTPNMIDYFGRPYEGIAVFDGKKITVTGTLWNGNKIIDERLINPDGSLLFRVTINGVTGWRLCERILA

Broadly, the Km is the concentration of substrate that gives half-maximal velocity. Take `O=c1c(Cc2ccccc2)nc2c(-c3ccccc3)[nH]c(-c3ccccc3)cn1-2` [3d]: the Km in assay [1] was determined as 120 µM. Besides, the “bioluminescence spectrum in transfected-cell lysate” value on NanoLuc was 3d selectively emits significant BL with NanoLuc.

With `CN(C)c1ccc(/C=C/C=C/C=C/c2cn3c(=O)c(Cc4ccccc4)nc-3c(-c3ccccc3)[nH]2)cc1` [2d], the Km in assay [1] was determined as 86.5 µM.

For `CN(C)c1ccc(/C=C/C=C/c2cn3c(=O)c(Cc4ccccc4)nc-3c(-c3ccccc3)[nH]2)cc1` [2c], the Km in assay [1] stood at 157 µM.

As for `Oc1ccc(Cc2nc3c(Cc4ccccc4)nc(-c4ccc(O)cc4)cn3c2O)cc1` [CTZ, coelenterazine], the Michaelis-Menten constant (Km) in assay [1] was 38.5 µM.

Take `O=c1c(Cc2ccccc2)nc2c(-c3ccccc3)[nH]c(-c3ccncc3)cn1-2` [3c]: the Km in assay [1] stood at 68.3 µM.

`CN(C)c1ccc(/C=C/C=C/C=C/c2cn3c(=O)c(Cc4ccc(O)cc4)nc-3c(Cc3ccccc3)[nH]2)cc1` [1d]: in assay [1], the Km came to 70.6 µM.

As to `CN(C)c1ccc(/C=C/c2cn3c(=O)c(Cc4ccc(O)cc4)nc-3c(Cc3ccccc3)[nH]2)cc1` [1b], the Km in assay [1] is 7.9 µM.

In the case of `CN(C)c1ccc(/C=C/C=C/c2cn3c(=O)c(Cc4ccc(O)cc4)nc-3c(Cc3ccccc3)[nH]2)cc1` [1c], the Km in assay [1] stood at 26.1 µM.
